Laboratory results as given in ChEMBL document CHEMBL3991601, “The target landscape of clinical kinase drugs” (Science, 2017).
pKd: −log10 of the molar value. Calls of active or inactive are those of the source.

How the values were obtained:
ADP/ATP translocase 2 = target: T1, ADP/ATP translocase 2 (Homo sapiens, UniProt P05141)
T1 sequence (P05141 whole entry): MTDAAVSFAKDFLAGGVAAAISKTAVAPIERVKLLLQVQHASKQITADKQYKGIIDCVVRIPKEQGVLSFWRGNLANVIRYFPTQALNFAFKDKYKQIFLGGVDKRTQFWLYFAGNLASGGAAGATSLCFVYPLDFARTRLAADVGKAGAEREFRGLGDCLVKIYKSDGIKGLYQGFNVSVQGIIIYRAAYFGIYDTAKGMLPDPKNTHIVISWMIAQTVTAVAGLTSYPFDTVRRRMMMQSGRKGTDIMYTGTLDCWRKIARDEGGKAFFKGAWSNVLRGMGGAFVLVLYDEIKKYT

[1] = target: GTP-binding nuclear protein Ran (Homo sapiens, UniProt P62826)
[2] = target: T2, Serine/threonine-protein kinase Nek2 (Homo sapiens, UniProt P51955)
T2 sequence (P51955 whole entry): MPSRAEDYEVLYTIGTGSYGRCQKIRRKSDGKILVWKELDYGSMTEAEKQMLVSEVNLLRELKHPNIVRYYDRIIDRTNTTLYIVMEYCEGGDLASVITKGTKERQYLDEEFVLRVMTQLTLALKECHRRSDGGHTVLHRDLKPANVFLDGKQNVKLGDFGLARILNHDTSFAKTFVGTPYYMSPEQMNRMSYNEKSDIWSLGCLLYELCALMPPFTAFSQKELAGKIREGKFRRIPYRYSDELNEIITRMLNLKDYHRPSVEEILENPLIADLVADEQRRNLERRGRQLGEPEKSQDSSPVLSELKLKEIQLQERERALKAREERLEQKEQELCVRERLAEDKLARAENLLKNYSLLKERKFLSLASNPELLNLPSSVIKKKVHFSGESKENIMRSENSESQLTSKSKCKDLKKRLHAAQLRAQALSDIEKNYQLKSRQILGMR

GTP-binding protein 4 = GTP-binding protein 4 (Homo sapiens, UniProt Q9BZE4)
[3] = target: PAS domain-containing serine/threonine-protein kinase (Homo sapiens, UniProt Q96RG2)
Sequence of PAS domain-containing serine/threonine-protein kinase (Q96RG2 whole entry, the tested form may be a part): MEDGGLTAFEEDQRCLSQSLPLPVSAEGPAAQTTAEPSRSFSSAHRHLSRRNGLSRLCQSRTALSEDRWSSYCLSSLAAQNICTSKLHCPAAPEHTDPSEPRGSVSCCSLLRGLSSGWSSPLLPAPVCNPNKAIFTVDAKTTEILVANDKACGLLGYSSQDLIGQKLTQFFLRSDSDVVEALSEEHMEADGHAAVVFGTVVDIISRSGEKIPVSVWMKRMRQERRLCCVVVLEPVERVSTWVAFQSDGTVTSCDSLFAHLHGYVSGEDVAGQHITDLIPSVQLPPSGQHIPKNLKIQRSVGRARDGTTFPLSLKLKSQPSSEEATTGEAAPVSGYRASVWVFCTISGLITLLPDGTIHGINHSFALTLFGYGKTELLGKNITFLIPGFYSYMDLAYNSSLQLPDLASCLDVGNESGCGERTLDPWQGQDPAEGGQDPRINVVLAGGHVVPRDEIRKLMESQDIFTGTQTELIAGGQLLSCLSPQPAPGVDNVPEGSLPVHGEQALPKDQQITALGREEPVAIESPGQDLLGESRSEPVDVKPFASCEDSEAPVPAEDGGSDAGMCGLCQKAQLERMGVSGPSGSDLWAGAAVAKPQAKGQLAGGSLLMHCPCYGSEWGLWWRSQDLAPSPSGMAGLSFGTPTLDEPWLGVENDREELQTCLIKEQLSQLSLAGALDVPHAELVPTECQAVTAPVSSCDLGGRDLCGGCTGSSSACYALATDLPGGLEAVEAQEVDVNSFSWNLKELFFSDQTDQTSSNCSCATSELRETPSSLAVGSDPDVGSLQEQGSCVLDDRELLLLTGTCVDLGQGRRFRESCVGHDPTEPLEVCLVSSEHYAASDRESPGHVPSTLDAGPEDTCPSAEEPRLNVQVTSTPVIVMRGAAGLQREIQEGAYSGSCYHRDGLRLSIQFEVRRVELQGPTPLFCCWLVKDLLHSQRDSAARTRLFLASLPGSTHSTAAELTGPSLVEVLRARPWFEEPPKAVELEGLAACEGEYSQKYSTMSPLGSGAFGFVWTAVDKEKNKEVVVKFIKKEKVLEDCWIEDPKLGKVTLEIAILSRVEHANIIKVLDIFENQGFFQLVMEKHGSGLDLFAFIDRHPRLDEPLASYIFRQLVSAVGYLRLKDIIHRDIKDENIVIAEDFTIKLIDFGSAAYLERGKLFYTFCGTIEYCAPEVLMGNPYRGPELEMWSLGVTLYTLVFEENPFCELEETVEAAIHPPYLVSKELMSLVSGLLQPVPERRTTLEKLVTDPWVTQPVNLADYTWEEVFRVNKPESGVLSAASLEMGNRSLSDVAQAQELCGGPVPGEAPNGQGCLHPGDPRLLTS

Activated CDC42 kinase 1 = Activated CDC42 kinase 1 (Homo sapiens, UniProt Q07912)
Sequence of Activated CDC42 kinase 1 (Q07912 whole entry): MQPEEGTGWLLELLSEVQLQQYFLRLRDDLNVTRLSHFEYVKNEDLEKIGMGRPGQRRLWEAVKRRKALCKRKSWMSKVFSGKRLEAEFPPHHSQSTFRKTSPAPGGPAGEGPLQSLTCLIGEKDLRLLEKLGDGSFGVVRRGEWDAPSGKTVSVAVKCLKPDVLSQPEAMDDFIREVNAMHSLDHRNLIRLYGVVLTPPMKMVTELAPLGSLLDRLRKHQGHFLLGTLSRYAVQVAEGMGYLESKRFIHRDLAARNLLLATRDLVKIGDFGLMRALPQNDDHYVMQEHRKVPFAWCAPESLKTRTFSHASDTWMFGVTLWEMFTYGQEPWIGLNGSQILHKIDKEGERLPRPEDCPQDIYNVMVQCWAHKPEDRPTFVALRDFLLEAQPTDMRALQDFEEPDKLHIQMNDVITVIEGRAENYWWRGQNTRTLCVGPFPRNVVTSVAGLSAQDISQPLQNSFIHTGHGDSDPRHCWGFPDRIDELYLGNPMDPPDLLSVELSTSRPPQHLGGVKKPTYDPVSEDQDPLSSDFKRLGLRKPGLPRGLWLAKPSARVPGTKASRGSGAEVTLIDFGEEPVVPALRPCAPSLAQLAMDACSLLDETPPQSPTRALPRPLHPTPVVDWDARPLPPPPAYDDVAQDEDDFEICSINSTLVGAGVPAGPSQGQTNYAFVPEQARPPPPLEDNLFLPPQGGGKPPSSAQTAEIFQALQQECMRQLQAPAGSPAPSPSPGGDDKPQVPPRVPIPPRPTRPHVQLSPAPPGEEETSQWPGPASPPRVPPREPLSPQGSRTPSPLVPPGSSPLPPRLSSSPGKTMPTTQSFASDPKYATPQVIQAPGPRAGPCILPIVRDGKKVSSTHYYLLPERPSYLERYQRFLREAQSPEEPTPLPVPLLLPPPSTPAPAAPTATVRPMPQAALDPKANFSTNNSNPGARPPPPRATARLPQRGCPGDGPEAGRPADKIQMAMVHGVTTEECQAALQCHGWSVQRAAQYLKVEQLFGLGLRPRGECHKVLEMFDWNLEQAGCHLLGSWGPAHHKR

Midasin = Midasin (Homo sapiens, UniProt Q9NU22)
[4] = target: Cyclin-dependent kinase 13 (Homo sapiens, UniProt Q14004)
Sequence of Cyclin-dependent kinase 13 (Q14004 whole entry): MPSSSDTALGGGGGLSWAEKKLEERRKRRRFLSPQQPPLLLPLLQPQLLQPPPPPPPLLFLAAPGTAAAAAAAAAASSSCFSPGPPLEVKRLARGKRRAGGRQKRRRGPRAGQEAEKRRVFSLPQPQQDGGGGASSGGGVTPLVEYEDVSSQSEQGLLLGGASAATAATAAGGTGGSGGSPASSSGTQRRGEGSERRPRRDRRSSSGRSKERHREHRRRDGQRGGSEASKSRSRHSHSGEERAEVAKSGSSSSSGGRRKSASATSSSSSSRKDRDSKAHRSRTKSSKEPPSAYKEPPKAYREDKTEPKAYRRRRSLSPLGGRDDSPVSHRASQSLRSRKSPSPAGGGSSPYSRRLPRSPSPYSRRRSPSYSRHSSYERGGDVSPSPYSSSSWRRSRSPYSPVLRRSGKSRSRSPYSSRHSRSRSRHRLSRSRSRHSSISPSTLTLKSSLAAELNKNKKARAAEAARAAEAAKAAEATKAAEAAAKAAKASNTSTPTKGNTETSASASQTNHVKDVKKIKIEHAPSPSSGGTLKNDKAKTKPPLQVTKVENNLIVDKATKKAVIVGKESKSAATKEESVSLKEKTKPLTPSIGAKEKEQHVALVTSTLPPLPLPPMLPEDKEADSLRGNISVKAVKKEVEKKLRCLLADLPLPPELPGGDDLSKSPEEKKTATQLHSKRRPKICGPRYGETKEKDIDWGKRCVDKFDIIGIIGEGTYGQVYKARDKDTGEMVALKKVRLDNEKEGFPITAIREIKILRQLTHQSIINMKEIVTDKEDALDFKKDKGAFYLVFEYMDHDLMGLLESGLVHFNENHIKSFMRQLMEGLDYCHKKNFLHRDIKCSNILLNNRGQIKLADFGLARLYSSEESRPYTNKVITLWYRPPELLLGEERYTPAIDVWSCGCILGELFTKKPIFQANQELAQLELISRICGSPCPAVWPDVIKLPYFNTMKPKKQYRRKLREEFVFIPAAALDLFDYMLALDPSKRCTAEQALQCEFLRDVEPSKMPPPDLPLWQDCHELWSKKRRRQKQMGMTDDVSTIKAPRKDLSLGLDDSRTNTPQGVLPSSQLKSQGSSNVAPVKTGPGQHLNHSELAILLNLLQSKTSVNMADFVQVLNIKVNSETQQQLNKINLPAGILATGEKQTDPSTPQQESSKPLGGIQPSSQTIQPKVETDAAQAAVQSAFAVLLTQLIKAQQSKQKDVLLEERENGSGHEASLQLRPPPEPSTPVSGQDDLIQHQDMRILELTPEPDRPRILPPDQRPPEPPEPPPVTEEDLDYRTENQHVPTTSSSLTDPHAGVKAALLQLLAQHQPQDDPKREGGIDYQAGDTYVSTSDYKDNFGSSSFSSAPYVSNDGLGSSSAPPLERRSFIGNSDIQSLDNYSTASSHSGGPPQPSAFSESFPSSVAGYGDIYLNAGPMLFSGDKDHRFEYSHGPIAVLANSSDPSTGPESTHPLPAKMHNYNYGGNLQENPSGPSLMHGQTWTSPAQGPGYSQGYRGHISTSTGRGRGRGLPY

[5] = target: Serine/threonine-protein kinase N1 (Homo sapiens, UniProt Q16512)
Sequence of Serine/threonine-protein kinase N1 (Q16512 whole entry): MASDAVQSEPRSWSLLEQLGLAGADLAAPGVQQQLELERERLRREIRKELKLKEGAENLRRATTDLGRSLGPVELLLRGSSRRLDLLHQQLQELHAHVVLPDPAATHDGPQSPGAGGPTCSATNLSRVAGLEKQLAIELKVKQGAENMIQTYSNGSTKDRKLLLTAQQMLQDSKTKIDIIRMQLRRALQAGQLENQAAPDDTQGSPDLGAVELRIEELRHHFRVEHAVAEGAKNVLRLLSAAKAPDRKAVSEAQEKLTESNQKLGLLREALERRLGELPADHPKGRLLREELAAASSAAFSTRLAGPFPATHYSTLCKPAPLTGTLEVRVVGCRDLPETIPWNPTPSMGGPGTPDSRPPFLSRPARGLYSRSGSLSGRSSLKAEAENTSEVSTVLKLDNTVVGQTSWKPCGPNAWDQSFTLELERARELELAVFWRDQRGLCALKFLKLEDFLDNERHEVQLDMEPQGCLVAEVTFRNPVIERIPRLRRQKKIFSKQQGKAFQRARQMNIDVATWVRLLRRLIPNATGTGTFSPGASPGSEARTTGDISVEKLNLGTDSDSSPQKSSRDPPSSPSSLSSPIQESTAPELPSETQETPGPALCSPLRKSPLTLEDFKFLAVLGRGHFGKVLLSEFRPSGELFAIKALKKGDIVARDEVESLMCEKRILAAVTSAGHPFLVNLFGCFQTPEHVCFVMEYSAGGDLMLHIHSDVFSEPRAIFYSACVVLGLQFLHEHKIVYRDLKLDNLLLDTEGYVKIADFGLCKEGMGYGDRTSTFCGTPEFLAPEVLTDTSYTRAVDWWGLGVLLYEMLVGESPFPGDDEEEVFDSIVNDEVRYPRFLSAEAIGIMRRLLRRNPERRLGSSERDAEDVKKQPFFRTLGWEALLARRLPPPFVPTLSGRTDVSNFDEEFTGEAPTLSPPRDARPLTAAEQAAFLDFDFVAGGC

TGF-beta receptor type-1 = target: T3, TGF-beta receptor type-1 (Homo sapiens, UniProt P36897)
T3 sequence (P36897 whole entry): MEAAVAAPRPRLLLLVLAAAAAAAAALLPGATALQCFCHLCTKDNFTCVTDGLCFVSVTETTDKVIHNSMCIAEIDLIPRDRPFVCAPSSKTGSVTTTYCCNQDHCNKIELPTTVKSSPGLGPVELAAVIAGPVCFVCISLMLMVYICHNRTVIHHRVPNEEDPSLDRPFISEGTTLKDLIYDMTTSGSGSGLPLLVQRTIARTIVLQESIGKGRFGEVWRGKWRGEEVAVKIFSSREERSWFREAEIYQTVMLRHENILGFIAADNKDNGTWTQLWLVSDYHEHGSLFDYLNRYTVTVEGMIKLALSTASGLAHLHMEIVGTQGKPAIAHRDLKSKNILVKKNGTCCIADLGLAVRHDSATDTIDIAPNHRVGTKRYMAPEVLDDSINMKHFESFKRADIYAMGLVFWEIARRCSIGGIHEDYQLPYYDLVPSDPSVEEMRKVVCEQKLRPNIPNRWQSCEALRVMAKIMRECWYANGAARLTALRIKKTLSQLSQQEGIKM

[6] = target: T4, Discoidin domain-containing receptor 2 (Homo sapiens, UniProt Q16832)
T4 sequence (Q16832 whole entry): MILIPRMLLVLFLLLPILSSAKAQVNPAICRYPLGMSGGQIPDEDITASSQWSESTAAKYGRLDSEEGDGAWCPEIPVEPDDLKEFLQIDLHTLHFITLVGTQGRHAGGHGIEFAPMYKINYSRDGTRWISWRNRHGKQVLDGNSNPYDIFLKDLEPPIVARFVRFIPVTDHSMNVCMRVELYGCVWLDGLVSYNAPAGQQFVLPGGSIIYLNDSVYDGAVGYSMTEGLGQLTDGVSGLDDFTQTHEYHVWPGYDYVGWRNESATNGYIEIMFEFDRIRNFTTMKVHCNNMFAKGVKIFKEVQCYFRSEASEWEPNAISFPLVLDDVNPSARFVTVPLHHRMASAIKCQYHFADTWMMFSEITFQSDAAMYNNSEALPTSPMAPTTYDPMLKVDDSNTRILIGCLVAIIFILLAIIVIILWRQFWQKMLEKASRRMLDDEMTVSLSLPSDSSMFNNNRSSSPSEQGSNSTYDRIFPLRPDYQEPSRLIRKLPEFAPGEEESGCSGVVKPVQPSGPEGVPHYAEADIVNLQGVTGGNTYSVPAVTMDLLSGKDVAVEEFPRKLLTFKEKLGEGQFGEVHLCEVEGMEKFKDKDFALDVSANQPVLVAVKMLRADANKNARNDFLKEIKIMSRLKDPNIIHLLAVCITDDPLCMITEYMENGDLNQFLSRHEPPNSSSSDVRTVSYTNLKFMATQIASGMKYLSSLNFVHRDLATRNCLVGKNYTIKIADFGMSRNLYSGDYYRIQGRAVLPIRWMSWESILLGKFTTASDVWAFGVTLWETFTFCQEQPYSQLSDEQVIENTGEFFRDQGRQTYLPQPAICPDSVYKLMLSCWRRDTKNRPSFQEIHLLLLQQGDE

[7] = target: T5, Phosphorylase b kinase gamma catalytic chain, liver/testis isoform (Homo sapiens, UniProt P15735)
T5 sequence (P15735 whole entry): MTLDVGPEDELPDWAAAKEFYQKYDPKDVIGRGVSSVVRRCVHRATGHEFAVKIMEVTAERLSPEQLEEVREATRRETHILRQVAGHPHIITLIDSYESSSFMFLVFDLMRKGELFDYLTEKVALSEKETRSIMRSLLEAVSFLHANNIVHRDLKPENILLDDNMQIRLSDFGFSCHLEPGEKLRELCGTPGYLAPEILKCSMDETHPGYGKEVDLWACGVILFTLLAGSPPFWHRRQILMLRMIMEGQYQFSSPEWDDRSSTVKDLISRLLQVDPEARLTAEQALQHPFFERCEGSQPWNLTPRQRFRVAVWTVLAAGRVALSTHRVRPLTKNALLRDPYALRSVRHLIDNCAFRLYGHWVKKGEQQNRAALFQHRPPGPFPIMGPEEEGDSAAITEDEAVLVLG
Note: in the data inactive means no Kd found up to 30 µM.

SMILES | Kd (ADP/ATP translocase 2) | Kd [1] | Kd [2] | Kd (GTP-binding protein 4) | Kd [3] | Kd (Activated CDC42 kinase 1) | Kd (Midasin) | Kd [4] | Kd [5] | Kd (TGF-beta receptor type-1) | Kd [6] | Kd [7] | pKd [7]
Cn1cc(-c2cnc3ccc4ccc(CS(=O)(=O)NCc5ccccn5)cc4c(=O)c3c2)cn1 [MK-8033] | > 30 µM (inactive) | > 30 µM (inactive) | > 30 µM (inactive) | > 30 µM (inactive) | > 30 µM (inactive) | > 30 µM (inactive) | > 30 µM (inactive) | > 30 µM (inactive) | > 30 µM (inactive) | > 30 µM (inactive) | > 30 µM (inactive) | > 30 µM (inactive) | 
CN1C/C=C/CCOc2cccc(c2)-c2ccnc(n2)Nc2cccc(c2)C1 [ZOTIRACICLIB] | > 30 µM (inactive) | > 30 µM (inactive) | > 30 µM (inactive) | > 30 µM (inactive) | > 30 µM (inactive) | > 30 µM (inactive) | > 30 µM (inactive) | > 30 µM (inactive) | 1.69 µM (active) | > 30 µM (inactive) | > 30 µM (inactive) | > 30 µM (inactive) | 
CC(=O)c1cnc2ccc(-c3cc(Cl)c(O)c(Cl)c3)nc2c1N[C@H]1CC[C@H](CN(C)C)CC1 | > 30 µM (inactive) | > 30 µM (inactive) | > 30 µM (inactive) | > 30 µM (inactive) | > 30 µM (inactive) | > 30 µM (inactive) | > 30 µM (inactive) | > 30 µM (inactive) | 0.244 µM (active) | 0.149 µM (active) | 2.28 µM (active) | 0.397 µM (active) | 
CCn1cc(-c2ccnc3[nH]c(-c4cccc(CN(C)C)c4)cc23)c(-c2ccc(NC(=O)N(C)C)cc2)n1 [GSK-1070916] | > 30 µM (inactive) | > 30 µM (inactive) | > 30 µM (inactive) | > 30 µM (inactive) | > 30 µM (inactive) | > 30 µM (inactive) | > 30 µM (inactive) |  | > 30 µM (inactive) | 1.94 µM (active) | 1.27 µM (active) | > 30 µM (inactive) | 
CC(C)c1cc(CNc2nc(Nc3cc(C4CC4)[nH]n3)cc(N3CCN(C)CC3)n2)on1 [XL-228] | > 30 µM (inactive) | > 30 µM (inactive) | > 30 µM (inactive) | > 30 µM (inactive) | > 30 µM (inactive) | 0.076 µM (active) | > 30 µM (inactive) | > 30 µM (inactive) | 0.011 µM (active) |  | 4.96 µM (active) | 2.41 µM (active) | 
CCS(=O)(=O)c1cccc(-c2cc(C(=O)NC3CCN(C)CC3)c(C)c3[nH]c4ncc(C)cc4c23)c1 [TAK-901] | > 30 µM (inactive) | > 30 µM (inactive) | > 30 µM (inactive) |  | > 30 µM (inactive) | 0.281 µM (active) | > 30 µM (inactive) | > 30 µM (inactive) | 2.98 µM (active) | 0.197 µM (active) |  | > 30 µM (inactive) | 
CNC(=O)c1nn(C)c2c1C(C)(C)Cc1cnc(Nc3ccc(N4CCN(C)CC4)cc3)nc1-2 [MILCICLIB] | > 30 µM (inactive) | > 30 µM (inactive) | > 30 µM (inactive) |  | > 30 µM (inactive) | 0.9 µM (active) | > 30 µM (inactive) | > 30 µM (inactive) | > 30 µM (inactive) | > 30 µM (inactive) | 4.29 µM (active) |  | 4.73
Cc1cccc(-c2nn3c(c2-c2ccnc4ccc(C(N)=O)cc24)CCC3)n1 [GALUNISERTIB] | > 30 µM (inactive) | > 30 µM (inactive) | > 30 µM (inactive) | > 30 µM (inactive) | > 30 µM (inactive) | > 30 µM (inactive) | > 30 µM (inactive) | > 30 µM (inactive) | > 30 µM (inactive) |  | > 30 µM (inactive) | > 30 µM (inactive) | 
Cc1nc(Nc2n[nH]c3c2CN(C(=O)N[C@H](CN(C)C)c2ccccc2)C3(C)C)c2sccc2n1 [PF-03758309] | > 30 µM (inactive) | > 30 µM (inactive) | > 30 µM (inactive) | > 30 µM (inactive) | > 30 µM (inactive) | > 30 µM (inactive) | > 30 µM (inactive) | > 30 µM (inactive) |  | > 30 µM (inactive) | > 30 µM (inactive) | 0.053 µM (active) | 
CN1CCN(CCOc2cc(OC3CCOCC3)c3c(Nc4c(Cl)ccc5c4OCO5)ncnc3c2)CC1 [SARACATINIB] | > 30 µM (inactive) | > 30 µM (inactive) | > 30 µM (inactive) |  | > 30 µM (inactive) | 4.65 µM (active) | > 30 µM (inactive) | > 30 µM (inactive) | > 30 µM (inactive) | 0.197 µM (active) |  | > 30 µM (inactive) | 
CNC(=O)c1cc(Oc2ccc(NC(=O)Nc3cc(C(C)(C)C)nn3-c3ccc4ncccc4c3)c(F)c2)ccn1 [REBASTINIB] | > 30 µM (inactive) | > 30 µM (inactive) | > 30 µM (inactive) | > 30 µM (inactive) | > 30 µM (inactive) | > 30 µM (inactive) | > 30 µM (inactive) | > 30 µM (inactive) | > 30 µM (inactive) | > 30 µM (inactive) |  | > 30 µM (inactive) | 
CCOc1cc2ncc(C#N)c(Nc3ccc(F)c(Cl)c3)c2cc1NC(=O)/C=C/CN(C)C [PELITINIB] | > 30 µM (inactive) | > 30 µM (inactive) |  | > 30 µM (inactive) | > 30 µM (inactive) | > 30 µM (inactive) | > 30 µM (inactive) | > 30 µM (inactive) | > 30 µM (inactive) | > 30 µM (inactive) | > 30 µM (inactive) | > 30 µM (inactive) | 
O=C(Nc1c[nH]nc1-c1nc2cc(CN3CCOCC3)ccc2[nH]1)NC1CC1 [AT-9283] | > 30 µM (inactive) | > 30 µM (inactive) | > 30 µM (inactive) | > 30 µM (inactive) | > 30 µM (inactive) | > 30 µM (inactive) | > 30 µM (inactive) |  |  | 0.077 µM (active) | > 30 µM (inactive) |  | 
